Measurements: the supplement of paper PMC10307832

Columns and labels:
Assay in all cases: relative viability (nuclei count vs DMSO), 5 days (fraction); higher = more cells survive
[1] = system: NCI-H647
Procedure, shortened: (§1)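 Relative viability was taken as the ratio of nuclei in treated wells to nuclei in vehicle wells. Lung cancer cell lines in 1536-well plates received compounds by pin tool one day after seeding, either one drug alone or a fixed anchor-drug dose plus five library-drug doses (not always all listed) in √10 steps. Nuclei were counted on 4× images after 5 days of treatment, and values are medians of duplicate plates.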

[2] = system: NCI-H2085
Procedure, shortened: as §1

[3] = system: NCI-H1975
Procedure, shortened: as §1

[4] = system: COR-L23
Procedure, shortened: as §1

[5] = system: NCI-H596
Procedure, shortened: as §1

[6] = system: LCLC-103H
Procedure, shortened: as §1

[7] = system: HOP-62
Procedure, shortened: as §1

[8] = system: NCI-H1395
Procedure, shortened: as §1

[9] = system: LXF-289
Procedure, shortened: as §1

[10] = system: NCI-H650
Procedure, shortened: as §1

[11] = system: A-427
Procedure, shortened: as §1

[12] = system: RERF-LC-KJ
Procedure, shortened: as §1

[13] = system: CAL-12T
Procedure, shortened: as §1

[14] = system: NCI-H3122
Procedure, shortened: as §1

[15] = system: NCI-H1651
Procedure, shortened: as §1

[16] = system: SK-MES-1
Procedure, shortened: as §1

[17] = system: NCI-H2087
Procedure, shortened: as §1

[18] = system: NCI-H2023
Procedure, shortened: as §1

[19] = system: NCI-H2170
Procedure, shortened: as §1

[20] = system: COR-L 105
Procedure, shortened: as §1

[21] = system: NCI-H2342
Procedure, shortened: as §1

Work on `COCC1(CO)C(=O)C2CCN1CC2` (configuration not stated) [PRIMA-1MET] + CC(=O)Nc1cccc(-n2c(=O)n(C3CC3)c(=O)c3c(Nc4ccc(I)cc4F)n(C)c(=O)c(C)c32)c1 [Trametinib] (partner 0.02 µM) yielded a relative viability ([1]; first compound 0.2 µM) of 0.306, a relative viability ([1]; first compound 0.6325 µM) of 0.537 and a relative viability ([1]; first compound 2 µM) of 0.279. For the same molecule, the relative viability ([1]; first compound 6.325 µM) was 0.456, the relative viability ([1]; first compound 20 µM) was 0.413 and the relative viability ([2]; first compound 0.2 µM) was 0.618. It also gave a relative viability ([2]; first compound 0.6325 µM) of 0.61, a relative viability ([2]; first compound 2 µM) of 0.508 and a relative viability ([2]; first compound 6.325 µM) of 0.427. It also gave a relative viability ([2]; first compound 20 µM) of 0.141, a relative viability ([3]; first compound 0.2 µM) of 0.362 and a relative viability ([3]; first compound 0.6325 µM) of 0.232. It also gave a relative viability ([3]; first compound 2 µM) of 0.277, a relative viability ([3]; first compound 6.325 µM) of 0.351 and a relative viability ([3]; first compound 20 µM) of 0.457. The relative viability ([4]; first compound 0.2 µM) was 0.247, the relative viability ([4]; first compound 0.6325 µM) was 0.532 and the relative viability ([4]; first compound 2 µM) was 0.495. The relative viability ([4]; first compound 6.325 µM) was 0.357, the relative viability ([4]; first compound 20 µM) was 0.0237 and the relative viability ([5]; first compound 0.2 µM) was 0.888. For the same molecule, the relative viability ([5]; first compound 0.6325 µM) was 0.718, the relative viability ([5]; first compound 2 µM) was 0.66 and the relative viability ([5]; first compound 6.325 µM) was 0.837. It also gave a relative viability ([5]; first compound 20 µM) of 0.119, a relative viability ([6]; first compound 0.2 µM) of 0.675 and a relative viability ([6]; first compound 0.6325 µM) of 0.619. The relative viability ([6]; first compound 2 µM) was 0.604, the relative viability ([6]; first compound 6.325 µM) was 0.655 and the relative viability ([6]; first compound 20 µM) was 0.709. It also gave a relative viability ([7]; first compound 0.2 µM) of 0.217, a relative viability ([7]; first compound 0.6325 µM) of 0.34 and a relative viability ([7]; first compound 2 µM) of 0.334. For the same molecule, the relative viability ([7]; first compound 6.325 µM) was 0.344, the relative viability ([7]; first compound 20 µM) was 0.364 and the relative viability ([8]; first compound 0.2 µM) was 1.14. The relative viability ([8]; first compound 2 µM) was 0.979, the relative viability ([8]; first compound 6.325 µM) was 1.02 and the relative viability ([8]; first compound 20 µM) was 1.05. The relative viability ([9]; first compound 0.2 µM) was 0.582, the relative viability ([9]; first compound 0.6325 µM) was 0.591 and the relative viability ([9]; first compound 2 µM) was 0.67. It also gave a relative viability ([9]; first compound 6.325 µM) of 0.651, a relative viability ([9]; first compound 20 µM) of 0.659 and a relative viability ([10]; first compound 0.2 µM) of 0.58. For the same molecule, the relative viability ([10]; first compound 0.6325 µM) was 0.965, the relative viability ([10]; first compound 2 µM) was 0.762 and the relative viability ([10]; first compound 6.325 µM) was 0.833. The relative viability ([10]; first compound 20 µM) was 0.0675, the relative viability ([11]; first compound 0.2 µM) was 0.533 and the relative viability ([11]; first compound 0.6325 µM) was 0.585. The relative viability ([11]; first compound 2 µM) was 0.786, the relative viability ([11]; first compound 6.325 µM) was 0.692 and the relative viability ([11]; first compound 20 µM) was 0.785. For the same molecule, the relative viability ([12]; first compound 0.2 µM) was 0.858, the relative viability ([12]; first compound 0.6325 µM) was 0.849 and the relative viability ([12]; first compound 2 µM) was 0.821. It also gave a relative viability ([12]; first compound 6.325 µM) of 0.951, a relative viability ([12]; first compound 20 µM) of 0.826 and a relative viability ([13]; first compound 0.2 µM) of 0.274. For the same molecule, the relative viability ([13]; first compound 0.6325 µM) was 0.319, the relative viability ([13]; first compound 2 µM) was 0.313 and the relative viability ([13]; first compound 6.325 µM) was 0.235. It also gave a relative viability ([13]; first compound 20 µM) of 0.15, a relative viability ([14]; first compound 0.2 µM) of 0.148 and a relative viability ([14]; first compound 0.6325 µM) of 0.237. It also gave a relative viability ([14]; first compound 2 µM) of 0.24, a relative viability ([14]; first compound 6.325 µM) of 0.17 and a relative viability ([14]; first compound 20 µM) of 0.191. For the same molecule, the relative viability ([15]; first compound 0.2 µM) was 0.826, the relative viability ([15]; first compound 0.6325 µM) was 0.562 and the relative viability ([15]; first compound 2 µM) was 0.842. For the same molecule, the relative viability ([15]; first compound 6.325 µM) was 0.849, the relative viability ([15]; first compound 20 µM) was 0.848 and the relative viability ([16]; first compound 0.2 µM) was 0.609. It also gave a relative viability ([16]; first compound 0.6325 µM) of 0.538, a relative viability ([16]; first compound 2 µM) of 0.549 and a relative viability ([16]; first compound 6.325 µM) of 0.624. For the same molecule, the relative viability ([16]; first compound 20 µM) was 0.592, the relative viability ([17]; first compound 0.6325 µM) was 0.185 and the relative viability ([17]; first compound 2 µM) was 0.19. It also gave a relative viability ([17]; first compound 6.325 µM) of 0.168, a relative viability ([17]; first compound 20 µM) of 0.117 and a relative viability ([18]; first compound 0.2 µM) of 0.681. It also gave a relative viability ([18]; first compound 0.6325 µM) of 0.556, a relative viability ([18]; first compound 2 µM) of 0.603 and a relative viability ([18]; first compound 6.325 µM) of 0.711. The relative viability ([18]; first compound 20 µM) was 0.546, the relative viability ([19]; first compound 0.2 µM) was 0.914 and the relative viability ([19]; first compound 0.6325 µM) was 0.911. The relative viability ([19]; first compound 2 µM) was 0.887, the relative viability ([19]; first compound 6.325 µM) was 0.975 and the relative viability ([19]; first compound 20 µM) was 0.964. It also gave a relative viability ([20]; first compound 0.2 µM) of 0.464, a relative viability ([20]; first compound 0.6325 µM) of 0.421 and a relative viability ([20]; first compound 2 µM) of 0.378. For the same molecule, the relative viability ([20]; first compound 6.325 µM) was 0.438, the relative viability ([20]; first compound 20 µM) was 0.108 and the relative viability ([21]; first compound 0.2 µM) was 0.77. The relative viability ([21]; first compound 0.6325 µM) was 1.06, the relative viability ([21]; first compound 6.325 µM) was 0.755 and the relative viability ([21]; first compound 20 µM) was 0.67.
